Assay results reported in PubChem BioAssay AID248 (DTP/NCI, 2004).
Values joined by “and” are separate entries in the source; they are usually repeats but may differ in a detail not shown here. Identical values can stand only once. Toxic doses and inconclusive results are not listed. Rule as the data show it: active = T/C of 150% or more; inactive = T/C below 125%.

Tested on: L1210 leukemia ip in BDF1 mice, survival T/C
Assay: NCI In Vivo Anticancer Drug Screen. Data for tumor model L1210 Leukemia (intraperitoneal) in B6D2F1 (BDF1) mice
Details: endpoint: mean survival time, higher = longer survival
In short: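 Read-out is survival time, reported as the treated-group measurement over the vehicle-control measurement.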

[1] = dose: 100.0 mg/kg/injection, schedule: Q01DX009 (ip), vehicle: Klucel (hydroxypropylcellulose) (HPC)
[2] = dose: 200.0 mg/kg/injection, schedule: Q01DX009 (ip), vehicle: Klucel (hydroxypropylcellulose) (HPC)
[3] = dose: 400.0 mg/kg/injection, schedule: Q01DX009 (ip), vehicle: Klucel (hydroxypropylcellulose) (HPC)
[4] = dose: 100.0 mg/kg/injection, schedule: Q01DX001 (ip), vehicle: saline
[5] = dose: 200.0 mg/kg/injection, schedule: Q01DX001 (ip), vehicle: saline
[6] = dose: 400.0 mg/kg/injection, schedule: Q01DX001 (ip), vehicle: saline
[7] = dose: 100.0 mg/kg/injection, schedule: Q04DX002 (ip), vehicle: Klucel (hydroxypropylcellulose) (HPC)
[8] = dose: 200.0 mg/kg/injection, schedule: Q04DX002 (ip), vehicle: Klucel (hydroxypropylcellulose) (HPC)
[9] = dose: 400.0 mg/kg/injection, schedule: Q04DX002 (ip), vehicle: Klucel (hydroxypropylcellulose) (HPC)
[10] = dose: 100.0 mg/kg/injection, schedule: Q04DX003 (ip), vehicle: Klucel (hydroxypropylcellulose) (HPC)
[11] = dose: 200.0 mg/kg/injection, schedule: Q04DX003 (ip), vehicle: Klucel (hydroxypropylcellulose) (HPC)
[12] = dose: 400.0 mg/kg/injection, schedule: Q04DX003 (ip), vehicle: Klucel (hydroxypropylcellulose) (HPC)
[13] = dose: 100.0 mg/kg/injection, schedule: Q04DX003 (ip), vehicle: saline with Tween-80
[14] = dose: 200.0 mg/kg/injection, schedule: Q04DX003 (ip), vehicle: saline with Tween-80
[15] = dose: 400.0 mg/kg/injection, schedule: Q04DX003 (ip), vehicle: saline with Tween-80
[16] = dose: 100.0 mg/kg/injection, schedule: Q01DX009 (ip), vehicle: saline with Tween-80
[17] = dose: 100.0 mg/kg/injection, schedule: Q04DX003 (ip), vehicle: saline
[18] = dose: 200.0 mg/kg/injection, schedule: Q01DX009 (ip), vehicle: saline with Tween-80
[19] = dose: 200.0 mg/kg/injection, schedule: Q04DX003 (ip), vehicle: saline
[20] = dose: 400.0 mg/kg/injection, schedule: Q01DX009 (ip), vehicle: saline with Tween-80
[21] = dose: 400.0 mg/kg/injection, schedule: Q04DX003 (ip), vehicle: saline
[22] = dose: 100.0 mg/kg/injection, schedule: Q01DX009 (ip), vehicle: saline
[23] = dose: 200.0 mg/kg/injection, schedule: Q01DX009 (ip), vehicle: saline

Measured: T/C

C=CCCOC(C)=O
inactive: dose: 75.0 mg/kg/injection, schedule: Q04DX003 (ip), vehicle: saline 96 % of control | [1] 107 % of control | dose: 150.0 mg/kg/injection, schedule: Q04DX003 (ip), vehicle: saline 100 % of control | [2] 97 % of control | dose: 300.0 mg/kg/injection, schedule: Q04DX003 (ip), vehicle: saline 100 % of control | [3] 100 % of control

Cc1ccc(/C=C\C(=O)OCCCCOC(=O)/C=C/c2ccc(C)cc2)cc1
inactive: dose: 50.0 mg/kg/injection, schedule: Q01DX001 (ip), vehicle: saline 97 % of control | [4] 95 % of control | [5] 91 % of control | [6] 95 % of control

CCN(CCO)C(=O)C1C(c2ccccc2)C1c1ccccc1 (centres undefined)
inactive: [7] 97 % of control | [8] 100 % of control | [9] 90 % of control

CC1(C)N=C(N)N=C(N)N1c1ccc(C(=O)c2ccccc2)cc1
inactive: dose: 25.0 mg/kg/injection, schedule: Q04DX003 (ip), vehicle: saline 96 % of control | dose: 50.0 mg/kg/injection, schedule: Q04DX003 (ip), vehicle: saline 89 % of control

CCc1ccccc1NC(=O)Nc1ccccc1C
inactive: [1] 87 % of control | [10] 88 % of control | [2] 93 % of control | [11] 89 % of control | [3] 87 % of control | [12] 93 % of control

Cc1ncc(COCc2ccccc2)c(CO)c1OCc1ccccc1
inactive: dose: 100.0 mg/kg/injection, schedule: Q01DX001 (ip), vehicle: carboxymethylcellulose (CMC) 92 % of control | dose: 200.0 mg/kg/injection, schedule: Q01DX001 (ip), vehicle: carboxymethylcellulose (CMC) 94 % of control | dose: 400.0 mg/kg/injection, schedule: Q01DX001 (ip), vehicle: carboxymethylcellulose (CMC) 94 % of control

COc1ccc(-c2sc(N)c(C#N)c2C)cc1OC
inactive: dose: 100.0 mg/kg/injection, schedule: Q01DX001 (ip), vehicle: saline with Tween-80 98 % of control | [13] 93 % of control and 97 % of control | dose: 200.0 mg/kg/injection, schedule: Q01DX001 (ip), vehicle: saline with Tween-80 93 % of control | [14] 95 % of control and 90 % of control | dose: 400.0 mg/kg/injection, schedule: Q01DX001 (ip), vehicle: saline with Tween-80 96 % of control | [15] 97 % of control and 102 % of control

O=C(O)C1C2C3CC(C4CC43)C12 (centres undefined)
inactive: [16] 96 % of control | [17] 96 % of control | [18] 106 % of control | [19] 93 % of control | [20] 96 % of control | [21] 100 % of control

ClC1C(Cl)C(Cl)C(Cl)C(Cl)C1Cl (centres undefined)
inactive: dose: 50.0 mg/kg/injection, schedule: Q01DX009 (ip), vehicle: saline 103 % of control | [22] 103 % of control | [23] 108 % of control

CC(NC(=O)OCc1ccccc1)C(=O)NC(Cc1ccccc1)C(=O)OCc1ccccc1 (centres undefined)
inactive: [13] 95 % of control | [15] 91 % of control

Cc1ccc(NS(=O)(=O)c2ccccc2)nc1
inactive: [16] 96 % of control | [13] 99 % of control | [18] 98 % of control | [14] 93 % of control | [20] 98 % of control | [15] 96 % of control

CC(C)(C)CN=C(N)N
inactive: [4] 96 % of control | [5] 94 % of control | [6] 102 % of control

O=C(/C=C/c1ccccc1)OCc1ccccc1CN1CCCCC1
inactive: [7] 104 % of control | [8] 96 % of control | [9] 86 % of control

c1nc2c([nH]1)CNCC2
inactive: [22] 94 % of control | [17] 100 % of control | [23] 93 % of control | [19] 98 % of control | dose: 400.0 mg/kg/injection, schedule: Q01DX009 (ip), vehicle: saline 94 % of control | [21] 108 % of control

CC(C)C(NC(=O)C(F)(F)F)C(=O)O (centres undefined)
inactive: dose: 87.5 mg/kg/injection, schedule: Q04DX003 (ip), vehicle: saline 90 % of control | dose: 175.0 mg/kg/injection, schedule: Q04DX003 (ip), vehicle: saline 89 % of control

O=C(Nc1ccc(F)cc1)OCCc1ccccn1
inactive: dose: 100.0 mg/kg/injection, schedule: Q01DX001 (ip), vehicle: Klucel (hydroxypropylcellulose) (HPC) 96 % of control | [1] 98 % of control and 101 % of control | [7] 94 % of control and 99 % of control | [10] 113 % of control | dose: 200.0 mg/kg/injection, schedule: Q01DX001 (ip), vehicle: Klucel (hydroxypropylcellulose) (HPC) 101 % of control | [2] 101 % of control and 106 % of control | [8] 94 % of control and 96 % of control | [11] 96 % of control | dose: 400.0 mg/kg/injection, schedule: Q01DX001 (ip), vehicle: Klucel (hydroxypropylcellulose) (HPC) 91 % of control | [3] 94 % of control and 91 % of control | [9] 97 % of control and 105 % of control | [12] 99 % of control

OCCOc1nc(Cl)nc(Cl)c1Cl (tested in a mixture with another compound)
inactive: dose: 12.5 mg/kg/injection, schedule: Q01DX009 (ip), vehicle: Klucel (hydroxypropylcellulose) (HPC) 110 % of control | dose: 25.0 mg/kg/injection, schedule: Q01DX009 (ip), vehicle: Klucel (hydroxypropylcellulose) (HPC) 96 % of control | dose: 50.0 mg/kg/injection, schedule: Q01DX009 (ip), vehicle: Klucel (hydroxypropylcellulose) (HPC) 100 % of control and 91 % of control

NC(N)=N/N=C(\c1ccc(Br)cc1)C1CC1
inactive: dose: 15.0 mg/kg/injection, schedule: Q01DX Z (ip), vehicle: carboxymethylcellulose (CMC) 96 % of control | dose: 30.0 mg/kg/injection, schedule: Q01DX Z (ip), vehicle: carboxymethylcellulose (CMC) 95 % of control | dose: 30.0 mg/kg/injection, schedule: Q01DX Z (oral), vehicle: carboxymethylcellulose (CMC) 100 % of control | dose: 60.0 mg/kg/injection, schedule: Q01DX Z (ip), vehicle: carboxymethylcellulose (CMC) 96 % of control | dose: 60.0 mg/kg/injection, schedule: Q01DX Z (oral), vehicle: carboxymethylcellulose (CMC) 115 % of control | dose: 120.0 mg/kg/injection, schedule: Q01DX Z (oral), vehicle: carboxymethylcellulose (CMC) 107 % of control and 121 % of control | dose: 240.0 mg/kg/injection, schedule: Q01DX Z (oral), vehicle: carboxymethylcellulose (CMC) 102 % of control and 111 % of control

CN(C)c1cc2c(cc1[N+](=O)[O-])-c1ccccc1C2=O
inactive: [13] 100 % of control | [14] 100 % of control | [15] 100 % of control

O=C(O)C(Cl)C(C(=O)O)c1ccccc1 (centres undefined)
inactive: dose: 100.0 mg/kg/injection, schedule: Q04DX002 (ip), vehicle: saline with Tween-80 101 % of control | dose: 200.0 mg/kg/injection, schedule: Q04DX002 (ip), vehicle: saline with Tween-80 93 % of control | dose: 400.0 mg/kg/injection, schedule: Q04DX002 (ip), vehicle: saline with Tween-80 93 % of control
